One block for each compound: values may come before it.
Legend:
[1] = test system: cultured mammalian cells; details: when incorporated into nuclear DNA; in vitro; cited from earlier work
[2] = test system: murine ovarian tumor (MOT); test: tumor cell survival after treatment of mouse ascites tumor (MOT); format: in vivo, C3HeB/FeJ mice
Protocol: (§1) The murine ovarian tumor (MOT) used in these experiments arose spontaneously in the ovary of a C3H mouse and is maintained in our laboratories by serial intraperitoneal [i.p.] transplantation in female C3HeB/FeJ mice. We have examined the appropriateness of the i.p. route for IUdR administration as a means to (i) bypass the rapid intrahepatic dehalogenation of this agent, and (ii) obtain high tumor to nontumor ratios. In these experiments, mice were injected with 10^6 tumor cells 24 h prior to the i.p. administration of ^125 IUdR [5 injections, 4 h apart]. […] Tumor-to-normal-tissue ratios derived from th biodistribution results ranged from 20 for organs with actively proliferating cells (for example uterus, intestine, stomach) to over 400 for organs with nondividing cells (brain, heart).
(§2) The tumor used in these experiments is the same murine ovarian tumor desoribed above. We have determined the median survival of mice after i.p. challenge with various tumor cell inocula.
The relatively long survival of tumor-bearing mice facilitates quantitative evaluation of tumor cell killing after treatment with ^125 IUdR and can be used to calculate a cellular survival fraction. We have, therefore, studied tumor cell survival as a function of the dose of ^125 IUdR administered i.p. at 4 h intervals beginning 24 h after tumor cell i.p. inoculation [10^5 -10^6 cells].
When mice are treated with four doses of ^125 IUdR at 4-h intervals and the survival fraction plotted as a function of the dose per treatment, a rapid decrease in the tumor cell survival fraction [10^-3 ] is observed at doses of 20 μCi per treatment with the curve being flat at higher levels [FIG. 6]. When seven consecutive injections of ^125 IUdR are given, a similar steep reduction in tumor cell survival is also observed; the plateau in this regimen occurs at a survival fraction of 10^-5.

[3] = catabolism/dehalogenation of IUdR in vivo; details: IUdR escaping from the CNS
[4] = test system: 9L gliosarcoma; test: scintigraphic imaging of intracerebral 9L gliosarcoma-bearing and sham-operated rats
[5] = test system: 9L gliosarcoma; test: biodistribution of radioactivity 40 h after intracerebral injection in 9L gliosarcoma-bearing and sham-operated rats
[6] = as above; details: rat, right brain
[7] = test system: murine ovarian tumor (MOT); test: scintigraphic imaging in MOT-bearing and control mice; format: in vivo, C3HeB/FeJ mice
[8] = test system: murine ovarian tumor (MOT); test: median survival of tumor-bearing (MOT ascites) mice; format: in vivo, C3HeB/FeJ mice; details: 5 i.p. injections, 4 h intervals, 24 h post i.p. tumor inoculation; FIG. 7; dose-dependent
Protocol: as §1, §2

[9] = later time points (2, 16 and 24 hr), single injection of 300 μCi

SMILES: O=c1[nH]c(=O)n([C@H]2C[C@H](O)[C@@H](CO)O2)cc1[125I] [^125 IUdR, 5-[^123 I/^125 I]iodo-2'-deoxyuridine]
- toxicity to cultured mammalian cells [1]: extremely toxic
- tumor cell survival fraction ([2]; four i.p. doses at 4-h intervals, 20 μCi per treatment, curve flat at higher levels): 10^-3
- tumor cell survival fraction (plateau) ([2]; seven consecutive i.p. injections): 10^-5

SMILES: O=c1[nH]c(=O)n([C@H]2C[C@H](O)[C@@H](CO)O2)cc1[131I] [IUdR radiolabeled with ^131 I, reference compound]
- decrease in tumor cell survival ([2]; equivalent doses): does not result in anv decrease in survival

- catabolism/dehalogenation [3]: rapidly
SMILES: O=c1[nH]c(=O)n([C@H]2C[C@H](O)[C@@H](CO)O2)cc1I [IUdR, 5-Iodo-2'-deoxyuridine]

SMILES: O=c1[nH]c(=O)n([C@H]2C[C@H](O)[C@@H](CO)O2)cc1[123I] [^123 IUdR, 5-[^123 I/^125 I]iodo-2'-deoxyuridine]
- toxicity to cultured mammalian cells [1]: extremely toxic
- activity in the thyroid ([4]; 0.1% potassium iodide in drinking water 48 h prior): No activity was seen
- activity within the head region at subsequent intervals ([4]; 12-38 h, all tumor-bearing animals): persistence of the activity
- bladder and stomach activities at subsequent intervals ([4]; 12-38 h, both groups, mainly associated with stomach contents and urine): still observed in both groups
- activity in the head ([4]; 1 h after intracerebral injection, tumor-bearing [n=16] and sham-operated [n=8]): showed activity in the head
- clearance of the activity from the head ([4]; all control (sham-operated) animals): ≤ 12 h
- activity in the stomach and the bladder ([4]; scintigraphy, 1 h after intracerebral injection): evident
- dehalogenation and excretion of free iodine ([4]; suggested by stomach and bladder activity, 1 h): rapid
- activity in stomach and bladder ([5]; 40 h, mainly associated with the stomach contents and with urine): high activities
- activity in all other normal tissues ([5]; 40 h, with the exception of the stomach and the bladder): low
- uptake in a tumor that could be precisely excised ([5]; one animal, 40 h after injection): 12 % of the ID
- tissue uptake at 40 h [6]: 0.36 ± 0.14 %ID/g
- tissue uptake at 40 h ([6]; uptake in right brain [injected side], sham-operated controls, 40 h after injection, mean±SD): 0.09 ± 0.02 %ID/g
- abdominal radioactivity, tumor-bearing and control mice ([7]; 1 h after single injection of 300 μCi): focal localization of radioactivity
- abdominal activity, animals without tumor [7, 9]: cleared from the abdomen
- focal area of abdominal activity, MOT-bearing mice [7, 9]: persisted only in MOT-bearing mice
- median survival of tumor-bearing animals [8]: prolongs median survival
- tumor cell survival fraction as a function of dose ([2]; 5 i.p. injections, 4 h intervals, 24 h post i.p. tumor inoculation, FIG. 8): exponential decrease
